Measurements published in patent publication US12522602B2, “Derivatives having 2,3-dihydro-1H-indene or 2,3-dihydrobenzofuran moiety or pharmaceutically acceptable salt thereof and pharmaceutical compositions comprising the same” (YUHAN CORPORATION, priority 2019, dated 2026).

system: GM1 production in Jurkat cells; assay: cells; format: cell-based; conditions: Homo sapiens, Jurkat, 72 h

Row | Structure (SMILES) | IC50
1 | COc1ccc(-c2ccc3c(c2)CC(C)(C)C3NC(=O)O[C@@H]2CN3CCC2CC3)c(OC)n1 (stereo partly drawn) [Example 184, (S)-quinuclidin-3-yl (5-(2,6-dimethoxypyridin-3-yl)-2,2-dimethyl-2,3-dihydro-1H-inden-1-yl)carbamate] | 40 nM
2 | COc1cc2c(cc1-c1ccc(C3CC3)cc1)CC(C)(C)C2NC(=O)O[C@@H]1CN2CCC1CC2 (stereo partly drawn) [Example 317, (S)-quinuclidin-3-yl (5-(4-cyclopropylphenyl)-6-methoxy-2,2-dimethyl-2,3-dihydro-1H-inden-1-yl)carbamate] | 10.3 nM
3 | COc1cccc(OC)c1-c1ccc2c(c1)CC(C)(C)C2NC(=O)O[C@@H]1CN2CCC1CC2 (stereo partly drawn) [Example 168, (S)-quinuclidin-3-yl (5-(2,6-dimethoxyphenyl)-2,2-dimethyl-2,3-dihydro-1H-inden-1-yl)carbamate] | 9.6 nM
4 | CC1(C)Cc2ccc(-c3cc(F)cc(F)c3)cc2C1NC(=O)O[C@@H]1CN2CCC1CC2 (stereo partly drawn) [Example 66, (S)-quinuclidin-3-yl (6-(3,5-difluorophenyl)-2,2-dimethyl-2,3-dihydro-1H-inden-1-yl)carbamate] | 128 nM
5 | CC1(C)Cc2cc(-c3ccc(F)c(F)c3F)ccc2C1NC(=O)O[C@@H]1CN2CCC1CC2 (stereo partly drawn) [Example 95, (S)-quinuclidin-3-yl (2,2-dimethyl-5-(2,3,4-trifluorophenyl)-2,3-dihydro-1H-inden-1-yl)carbamate] | 49.7 nM
6 | CCc1ccc(/C=C/c2ccc3c(c2)CC(C)(C)C3NC(=O)O[C@@H]2CN3CCC2CC3)cc1 (stereo partly drawn) [Example 274, (S)-quinuclidin-3-yl (5-((E)-4-ethylstyryl)-2,2-dimethyl-2,3-dihydro-1H-inden-1-yl)carbamate] | 10.3 nM
7 | O=C(NC1c2ccc(-c3ccc(Cl)cc3)cc2CC12CC2)O[C@@H]1CN2CCC1CC2 (stereo partly drawn) [Example 390, (S)-quinuclidin-3-yl (5′-(4-chlorophenyl)-1′,3′-dihydrospiro[cyclopropane-1,2′-inden]-1′-yl)carbamate] | 44.1 nM
8 | Cc1ccc(C)c(-c2ccc3c(c2)CC(C)(C)C3NC(=O)O[C@@H]2CN3CCC2CC3)c1 (stereo partly drawn) [Example 260, (S)-quinuclidin-3-yl (5-(2,5-dimethylphenyl)-2,2-dimethyl-2,3-dihydro-1H-inden-1-yl)carbamate] | 14.4 nM
9 | Cc1ccc(-c2ccc3c(c2)CC(C)(C)C3NC(=O)O[C@@H]2CN3CCC2CC3)cc1F (stereo partly drawn) [Example 215, (S)-quinuclidin-3-yl (5-(3-fluoro-4-methylphenyl)-2,2-dimethyl-2,3-dihydro-1H-inden-1-yl)carbamate] | 14.9 nM
10 | CC1(C)Oc2cc(-c3cccc(C(F)(F)F)c3)ccc2C1NC(=O)O[C@@H]1CN2CCC1CC2 (stereo partly drawn) [Example 409, (S)-quinuclidin-3-yl (2,2-dimethyl-6-(3-(trifluoromethyl)phenyl)-2,3-dihydrobenzofuran-3-yl)carbamate] | 14.9 nM
11 | CC1(C)Cc2ccc(-c3ccc(F)c(F)c3)cc2C1NC(=O)O[C@@H]1CN2CCC1CC2 (stereo partly drawn) [Example 62, (S)-quinuclidin-3-yl (6-(3,4-difluorophenyl)-2,2-dimethyl-2,3-dihydro-1H-inden-1-yl)carbamate] | 103 nM
12 | COc1c(F)cccc1-c1ccc2c(c1)CC(C)(C)C2NC(=O)O[C@@H]1CN2CCC1CC2 (stereo partly drawn) [Example 236, (S)-quinuclidin-3-yl (5-(3-fluoro-2-methoxyphenyl)-2,2-dimethyl-2,3-dihydro-1H-inden-1-yl)carbamate] | 32.4 nM
13 | CCCOc1cccc(-c2ccc3c(c2)CC(C)(C)C3NC(=O)O[C@@H]2CN3CCC2CC3)c1 (stereo partly drawn) [Example 199, (S)-quinuclidin-3-yl (2,2-dimethyl-5-(3-propoxyphenyl)-2,3-dihydro-1H-inden-1-yl)carbamate] | 5.5 nM
14 | CCOc1c(C)cc(-c2ccc3c(c2)CC(CC)(CC)C3NC(=O)O[C@@H]2CN3CCC2CC3)cc1C (stereo partly drawn) [Example 303, (S)-quinuclidin-3-yl (5-(4-ethoxy-3,5-dimethylphenyl)-2,2-diethyl-2,3-dihydro-1H-inden-1-yl)carbamate] | 27.2 nM
15 | CCC1(CC)Cc2cc(-c3cccc(F)c3)ccc2C1NC(=O)O[C@@H]1CN2CCC1CC2 (stereo partly drawn) [Example 288, (S)-quinuclidin-3-yl (2,2-diethyl-5-(3-fluorophenyl)-2,3-dihydro-1H-inden-1-yl)carbamate] | 11.2 nM
16 | O=C(NC1c2ccc(-c3ccc(F)cc3)cc2CC12CC2)O[C@@H]1CN2CCC1CC2 (stereo partly drawn) [Example 389, (S)-quinuclidin-3-yl (5′-(4-fluorophenyl)-1′,3′-dihydrospiro[cyclopropane-1,2′-inden]-1′-yl)carbamate] | 76.5 nM
17 | COc1ccc(-c2cc3c(cc2OC)C(NC(=O)O[C@@H]2CN4CCC2CC4)C(C)(C)C3)c(F)c1 (stereo partly drawn) [Example 323, (S)-quinuclidin-3-yl (5-(2-fluoro-4-methoxyphenyl)-6-methoxy-2,2-dimethyl-2,3-dihydro-1H-inden-1-yl)carbamate] | 78.9 nM
18 | O=C(NC1CCc2cc(-c3ccc(OC(F)F)cc3)ccc21)O[C@@H]1CN2CCC1CC2 (stereo partly drawn) [Example 14, (S)-quinuclidin-3-yl (5-(4-(difluoromethoxy)phenyl)-2,3-dihydro-1H-inden-1-yl)carbamate] | 54.3 nM

Row | Structure (SMILES) | IC50
19 | CC(C)Oc1cccc(-c2cc3c(cc2F)C(NC(=O)O[C@@H]2CN4CCC2CC4)C(C)(C)C3)c1 (stereo partly drawn) [Example 378, (S)-quinuclidin-3-yl (6-fluoro-5-(3-isopropoxyphenyl)-2,2-dimethyl-2,3-dihydro-1H-inden-1-yl)carbamate] | 87.5 nM
20 | CC1(C)Cc2cc(-c3ccc(OC(F)(F)F)c(F)c3)ccc2C1NC(=O)O[C@@H]1CN2CCC1CC2 (stereo partly drawn) [Example 249, (S)-quinuclidin-3-yl (5-(3-fluoro-4-(trifluoromethoxy)phenyl)-2,2-dimethyl-2,3-dihydro-1H-inden-1-yl)carbamate] | 37 nM
21 | CCOc1cccc(-c2cc3c(cc2OC)C(NC(=O)O[C@@H]2CN4CCC2CC4)C(C)(C)C3)c1 (stereo partly drawn) [Example 339, (S)-quinuclidin-3-yl (5-(3-ethoxyphenyl)-6-methoxy-2,2-dimethyl-2,3-dihydro-1H-inden-1-yl)carbamate] | 62.5 nM
22 | CC1(C)Cc2cc(-c3ccc(Cl)cc3)ccc2C1NC(=O)O[C@@H]1CN2CCC1CC2 (stereo partly drawn) [Example 74, (S)-quinuclidin-3-yl (5-(4-chlorophenyl)-2,2-dimethyl-2,3-dihydro-1H-inden-1-yl)carbamate] | 13 nM
23 | COc1ccc(C)cc1-c1ccc2c(c1)CC(C)(C)C2NC(=O)O[C@@H]1CN2CCC1CC2 (stereo partly drawn) [Example 200, (S)-quinuclidin-3-yl (5-(2-methoxy-5-methylphenyl)-2,2-dimethyl-2,3-dihydro-1H-inden-1-yl)carbamate] | 3.7 nM
24 | CCCOc1cc(F)ccc1-c1ccc2c(c1)CC(C)(C)C2NC(=O)O[C@@H]1CN2CCC1CC2 (stereo partly drawn) [Example 239, (S)-quinuclidin-3-yl (5-(4-fluoro-2-propoxyphenyl)-2,2-dimethyl-2,3-dihydro-1H-inden-1-yl)carbamate] | 48.9 nM
25 | CCC1(CC)Cc2cc(-c3cccc(OC)c3)ccc2C1NC(=O)O[C@@H]1CN2CCC1CC2 (stereo partly drawn) [Example 289, (S)-quinuclidin-3-yl (2,2-diethyl-5-(3-methoxyphenyl)-2,3-dihydro-1H-inden-1-yl)carbamate] | 7.4 nM
26 | CC1(C)Cc2cc(-c3cccc4cccnc34)ccc2C1NC(=O)O[C@@H]1CN2CCC1CC2 (stereo partly drawn) [Example 156, (S)-quinuclidin-3-yl (2,2-dimethyl-5-(quinolin-8-yl)-2,3-dihydro-1H-inden-1-yl)carbamate] | 46.7 nM
27 | CCOc1cc(-c2ccc3c(c2)CC(C)(C)C3NC(=O)O[C@@H]2CN3CCC2CC3)cc(C(F)(F)F)c1 (stereo partly drawn) [Example 245, (S)-quinuclidin-3-yl (5-(3-ethoxy-5-(trifluoromethyl)phenyl)-2,2-dimethyl-2,3-dihydro-1H-inden-1-yl)carbamate] | 23 nM
28 | CC(C)COc1cccc(-c2ccc3c(c2)CC(C)(C)C3NC(=O)O[C@@H]2CN3CCC2CC3)c1 (stereo partly drawn) [Example 205, (S)-quinuclidin-3-yl (5-(3-isobutoxyphenyl)-2,2-dimethyl-2,3-dihydro-1H-inden-1-yl)carbamate] | 7.6 nM
29 | COc1ccc(-c2ccc3c(c2)CC(C)(C)C3NC(=O)O[C@@H]2CN3CCC2CC3)cc1C(F)(F)F (stereo partly drawn) [Example 134, (S)-quinuclidin-3-yl (5-(4-methoxy-3-(trifluoromethyl)phenyl)-2,2-dimethyl-2,3-dihydro-1H-inden-1-yl)carbamate] | 43.2 nM
30 | CCC1(CC)Cc2cc(-c3cccc(OC)c3OC)ccc2C1NC(=O)O[C@@H]1CN2CCC1CC2 (stereo partly drawn) [Example 295, (S)-quinuclidin-3-yl (5-(2,3-dimethoxyphenyl)-2,2-diethyl-2,3-dihydro-1H-inden-1-yl)carbamate] | 35 nM
31 | CC1(C)Cc2ccc(-c3cccc(F)c3F)cc2C1NC(=O)O[C@@H]1CN2CCC1CC2 (stereo partly drawn) [Example 64, (S)-quinuclidin-3-yl (6-(2,3-difluorophenyl)-2,2-dimethyl-2,3-dihydro-1H-inden-1-yl)carbamate] | 74.7 nM
32 | Cc1ccc(-c2ccc3c(c2)CC(C)(C)C3NC(=O)O[C@@H]2CN3CCC2CC3)cc1Cl (stereo partly drawn) [Example 259, (S)-quinuclidin-3-yl (5-(3-chloro-4-methylphenyl)-2,2-dimethyl-2,3-dihydro-1H-inden-1-yl)carbamate] | 10.2 nM
33 | COCOc1cccc(-c2ccc3c(c2)CC(C)(C)C3NC(=O)O[C@@H]2CN3CCC2CC3)c1 (stereo partly drawn) [Example 101, (S)-quinuclidin-3-yl (5-(3-(methoxymethoxy)phenyl)-2,2-dimethyl-2,3-dihydro-1H-inden-1-yl)carbamate] | 8.7 nM
34 | CCc1cccc(-c2cc3c(cc2F)C(NC(=O)O[C@@H]2CN4CCC2CC4)C(C)(C)C3)c1 (stereo partly drawn) [Example 371, (S)-quinuclidin-3-yl (5-(3-ethylphenyl)-6-fluoro-2,2-dimethyl-2,3-dihydro-1H-inden-1-yl)carbamate] | 24.8 nM
35 | O=C(NC1CCc2ccc(-c3ccc(Cl)c(Cl)c3)cc21)O[C@@H]1CN2CCC1CC2 (stereo partly drawn) [Example 47, (S)-quinuclidin-3-yl (6-(3,4-dichlorophenyl)-2,3-dihydro-1H-inden-1-yl)carbamate] | 26.6 nM
36 | O=C(NC1CCc2ccc(-c3cccc(OC(F)(F)F)c3)cc21)O[C@@H]1CN2CCC1CC2 (stereo partly drawn) [Example 32, (S)-quinuclidin-3-yl (6-(3-(trifluoromethoxy)phenyl)-2,3-dihydro-1H-inden-1-yl)carbamate] | 120 nM
